Test results reported in patent publication US12435060B2, “Acylamino bridged heterocyclic compound, and composition and application thereof” (BEIJING SCITECH-MQ PHARMACEUTICALS LIMITED, priority 2019, dated 2025).

System: HT29 cells
Assay: Inhibition of cell necrosis (CCK8 method), induced programmed necrosis of HT29 cells
Format: cell-based
Conditions: Homo sapiens, HT-29; rescue from necrosis induced by TNF-α 20 ng/mL, AT-406 1 μM, Z-VAD-FMK 20 μM; 16-20 hours; CCK-8, OD 450 nm
Summary of the method: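 Rescue from programmed necrosis was scored by CCK-8 absorbance at 450 nm after 16-20 h of TNF-α (20 ng/mL), AT-406 (1 μM) and Z-VAD-FMK (20 μM) at 37 °C, 5% CO2. HT29 cells had received compound 30 min earlier across nine 4-fold dilutions (top 25000 nM final). IC50 came from % inhibition relative to uninduced and induced-only wells.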

SMILES | IC50 [nM]
Cc1ccc(OCCCC(C)(C)O)cc1-c1ccnc(NC(=O)c2nnc(Cc3ccc(F)c(C(F)(F)F)c3)[nH]2)c1 [Example 212, 5-(4-fluoro-3-trifluoromethylbenzyl)-N-(4-(5-((4-hydroxy-4-methylpentyl)oxy)-2-methylphenyl)pyridin-2-yl)-4H-1,2,4-triazole-3-carboxamide] | 100 to 1000
Cc1ccc(OCCCC(C)(C)O)cc1-c1ccnc(NC(=O)c2nnc(Cc3cc(F)cc(C(F)(F)F)c3)[nH]2)c1 [Example 213, 5-(3-fluoro-5-trifluoromethylbenzyl)-N-(4-(5-((4-hydroxy-4-methylpentyl)oxy)-2-methylphenyl)pyridin-2-yl)-4H-1,2,4-triazole-3-carboxamide] | 1000 to 10000
Cc1ccc(OCCCC(C)(C)O)cc1-c1ccnc(NC(=O)c2nnc(Cc3ccc(F)c(F)c3F)[nH]2)c1 [Example 214, 5-(2,3,4-trifluorobenzyl)-N-(4-(5-((4-hydroxy-4-methylpentyl)oxy)-2-methylphenyl)pyridin-2-yl)-4H-1,2,4-triazole-3-carboxamide] | ≤ 100
Cc1ccc(OCCCC(C)(C)O)cc1-c1ccnc(NC(=O)c2nnc(Cc3cc(F)cc(F)c3F)[nH]2)c1 [Example 215, 5-(2,3,5-trifluorobenzyl)-N-(4-(5-((4-hydroxy-4-methylpentyl)oxy)-2-methylphenyl)pyridin-2-yl)-4H-1,2,4-triazole-3-carboxamide] | ≤ 100
Cc1ccc(OCCCC(C)(C)O)cc1-c1ccnc(NC(=O)c2nnc(Cc3c(F)ccc(F)c3F)[nH]2)c1 [Example 216, 5-(2,3,6-trifluorobenzyl)-N-(4-(5-((4-hydroxy-4-methylpentyl)oxy)-2-methylphenyl)pyridin-2-yl)-4H-1,2,4-triazole-3-carboxamide] | ≤ 100
Cc1ccc(OCCCC(C)(C)O)cc1-c1ccnc(NC(=O)c2nnc(Cc3cc(F)c(F)c(F)c3)[nH]2)c1 [Example 217, 5-(3,4,5-trifluorobenzyl)-N-(4-(5-((4-hydroxy-4-methylpentyl)oxy)-2-methylphenyl)pyridin-2-yl)-4H-1,2,4-triazole-3-carboxamide] | 100 to 1000
Cc1ccc(OCCCC(C)(C)O)cc1-c1ccnc(NC(=O)c2nnc(Cc3cc(F)c(F)cc3F)[nH]2)c1 [Example 218, 5-(2,4,5-trifluorobenzyl)-N-(4-(5-((4-hydroxy-4-methylpentyl)oxy)-2-methylphenyl)pyridin-2-yl)-4H-1,2,4-triazole-3-carboxamide] | ≤ 100
Cc1ccc(OCCCC(C)(C)O)cc1-c1ccnc(NC(=O)c2nnc(Cc3ccccn3)[nH]2)c1 [Example 219, N-(4-(5-((4-hydroxy-4-methylpentyl)oxy)-2-methylphenyl)pyridin-2-yl)-5-(pyridin-2-ylmethyl)-4H-1,2,4-triazole-3-carboxamide] | ≤ 100
Cc1ccc(OCCCC(C)(C)O)cc1-c1ccnc(NC(=O)c2nnc(Cc3cccnc3)[nH]2)c1 [Example 220, N-(4-(5-((4-hydroxy-4-methylpentyl)oxy)-2-methylphenyl)pyridin-2-yl)-5-(pyridin-3-ylmethyl)-4H-1,2,4-triazole-3-carboxamide] | ≤ 100
Cc1ccc(OCCCC(C)(C)O)cc1-c1ccnc(NC(=O)c2nnc(Cc3ccncc3)[nH]2)c1 [Example 221, N-(4-(5-((4-hydroxy-4-methylpentyl)oxy)-2-methylphenyl)pyridin-2-yl)-5-(pyridin-4-ylmethyl)-4H-1,2,4-triazole-3-carboxamide] | 100 to 1000
Cc1ccc(OCCCC(C)(C)O)cc1-c1ccnc(NC(=O)c2nnc(CC3CCCCCC3)[nH]2)c1 [Example 222, 5-(cycloheptylmethyl)-N-(4-(5-((4-hydroxy-4-methylpentyl)oxy)-2-methylphenyl)pyridin-2-yl)-4H-1,2,4-triazole-3-carboxamide] | ≤ 100
Cc1ccc(OCCCCC(C)(C)O)cc1-c1ccnc(NC(=O)c2nnc(CC3CCCC3)[nH]2)c1 [Example 223, 5-(cyclopentylmethyl)-N-(4-(5-((5-hydroxyl-5-methylhexyl)oxy)-2-methylphenyl)pyridin-2-yl)-4H-1,2,4-triazole-3-carboxamide] | ≤ 100
Cc1ccc(OCCCCCO)cc1-c1ccnc(NC(=O)c2nnc(CC3CCCC3)[nH]2)c1 [Example 224, 5-(cyclopentylmethyl)-N-(4-(5-((5-hydroxypentyl)oxy)-2-methylphenyl)pyridin-2-yl)-4H-1,2,4-triazole-3-carboxamide] | ≤ 100
Cc1ccc(OCCC2CCCCCC2)cc1-c1ccnc(NC(=O)c2nnc(Cc3ccccc3)[nH]2)c1 [Example 225, 5-benzyl-N-(4-(5-(2-cycloheptylethoxy)-2-methylphenyl)pyridin-2-yl)-4H-1,2,4-triazole-3-carboxamide] | ≤ 100
Cc1ccc(OCCC2CCOCC2)cc1-c1ccnc(NC(=O)c2nnc(Cc3ccccc3F)[nH]2)c1 [Example 226, 5-(2-fluorobenzyl)-N-(4-(2-methyl-5-(2-(tetrahydro-2H-pyran-4-yl)ethoxy)phenyl)pyridin-2-yl)-4H-1,2,4-triazole-3-carboxamide] | ≤ 100
Cc1ccc(OCCC2CCCCO2)cc1-c1ccnc(NC(=O)c2nnc(Cc3ccccc3)[nH]2)c1 (stereo not drawn) [Example 227, 5-benzyl-N-(4-(2-methyl-5-(2-(tetrahydro-2H-pyran-2-yl)ethoxy)phenyl)pyridin-2-yl)-4H-1,2,4-triazole-3-carboxamide] | ≤ 100
Cc1ccc(OCCN2CCCCC2)cc1-c1ccnc(NC(=O)c2nnc(Cc3ccccc3)[nH]2)c1 [Example 228, 5-benzyl-N-(4-(2-methyl-5-(2-(piperidin-1-yl)ethoxy)phenyl)pyridin-2-yl)-4H-1,2,4-triazole-3-carboxamide] | 100 to 1000
Cc1ccc(OCCN2CCCCC2)cc1-c1ccnc(NC(=O)c2nnc(Cc3ccccc3F)[nH]2)c1 [Example 229, 5-(2-fluorobenzyl)-N-(4-(2-methyl-5-(2-(piperidin-1-yl)ethoxy)phenyl)pyridin-2-yl)-4H-1,2,4-triazole-3-carboxamide] | 100 to 1000
Cc1ccc(OCCN2CCCCC2)cc1-c1ccnc(NC(=O)c2nnc(Cc3ccc(F)cc3F)[nH]2)c1 [Example 230, 5-(2,4-difluorobenzyl)-N-(4-(2-methyl-5-(2-(piperidin-1-yl)ethoxy)phenyl)pyridin-2-yl)-4H-1,2,4-triazole-3-carboxamide] | 100 to 1000
Cc1ccc(OCCN2CCCCC2)cc1-c1ccnc(NC(=O)c2nnc(Cc3cc(F)ccc3F)[nH]2)c1 [Example 231, 5-(2,5-difluorobenzyl)-N-(4-(2-methyl-5-(2-(piperidin-1-yl)ethoxy)phenyl)pyridin-2-yl)-4H-1,2,4-triazole-3-carboxamide] | 100 to 1000
Cc1ccc(OCCN2CCCCC2)cc1-c1ccnc(NC(=O)c2nnc(Cc3cc(F)cc(F)c3)[nH]2)c1 [Example 232, 5-(3,5-difluorobenzyl)-N-(4-(2-methyl-5-(2-(piperidin-1-yl)ethoxy)phenyl)pyridin-2-yl)-4H-1,2,4-triazole-3-carboxamide] | 100 to 1000
Cc1ccc(OCCN2CCCCC2)cc1-c1ccnc(NC(=O)c2nnc(Cc3cccc(Cl)c3F)[nH]2)c1 [Example 233, 5-(2-fluoro-3-chlorobenzyl)-N-(4-(2-methyl-5-(2-(piperidin-1-yl)ethoxy)phenyl)pyridin-2-yl)-4H-1,2,4-triazole-3-carboxamide] | 1000 to 10000
Cc1ccc(OCC2CCN(C)CC2)cc1-c1ccnc(NC(=O)c2nnc(Cc3ccccc3F)[nH]2)c1 [Example 234, 5-(2-fluorobenzyl)-N-(4-(2-methyl-5-((1-methylpiperidin-4-yl)methoxy)phenyl)pyridin-2-yl)-4H-1,2,4-triazole-3-carboxamide] | ≤ 100
Cc1c(F)cc(OCCCC(C)(C)O)cc1-c1ccnc(NC(=O)c2nnc(Cc3ccccc3)[nH]2)c1 [Example 235, 5-benzyl-N-(4-(3-fluoro-5-((4-hydroxy-4-methylpentyl)oxy)-2-methylphenyl)pyridin-2-yl)-4H-1,2,4-triazole-3-carboxamide] | ≤ 100
Cc1c(F)cc(OCCCC(C)(C)O)cc1-c1ccnc(NC(=O)c2nnc(Cc3ccccc3F)[nH]2)c1 [Example 236, 5-(2-fluorobenzyl)-N-(4-(3-fluoro-5-((4-hydroxy-4-methylpentyl)oxy)-2-methylphenyl)pyridin-2-yl)-4H-1,2,4-triazole-3-carboxamide] | ≤ 100
Cc1cc(F)c(OCCCC(C)(C)O)cc1-c1ccnc(NC(=O)c2nnc(Cc3ccccc3)[nH]2)c1 [Example 237, 5-benzyl-N-(4-(4-fluoro-5-((4-hydroxy-4-methylpentyl)oxy)-2-methylphenyl)pyridin-2-yl)-4H-1,2,4-triazole-3-carboxamide] | ≤ 100
Cc1ccc(OCCCC(C)(C)O)cc1-c1cc(NC(=O)c2nnc(Cc3ccccc3F)[nH]2)ncc1Cl [Example 238, N-(5-chloro-4-(5-((4-hydroxy-4-methylpentyl)oxy)-2-methylphenyl)pyridin-2-yl)-5-(2-fluorobenzyl)-4H-1,2,4-triazole-3-carboxamide] | ≤ 100
Cc1ccc(OCCCC(C)(C)O)cc1-c1cc(NC(=O)c2nnc(CC3CCCCC3)[nH]2)ncc1Cl [Example 239, N-(5-chloro-4-(5-((4-hydroxy-4-methylpentyl)oxy)-2-methylphenyl)pyridin-2-yl)-5-(cyclohexylmethyl)-4H-1,2,4-triazole-3-carboxamide] | ≤ 100
Cc1ccc(OCCCC(C)(C)O)cc1-c1cc(NC(=O)c2nnc(Cc3ccccc3F)[nH]2)ncc1C [Example 240, 5-(2-fluorobenzyl)-N-(4-(5-((4-hydroxy-4-methylpentyl)oxy)-2-methylphenyl)-5-methylpyridin-2-yl)-4H-1,2,4-triazole-3-carboxamide] | 100 to 1000
Cc1ccc(OCCCC(C)(C)O)cc1-c1cc(NC(=O)c2nnc(CC3CCCCC3)[nH]2)ncc1C [Example 241, 5-(cyclohexylmethyl)-N-(4-(5-((4-hydroxy-4-methylpentyl)oxy)-2-methylphenyl)-5-methylpyridin-2-yl)-4H-1,2,4-triazole-3-carboxamide] | 100 to 1000
